Measured values as given in patent US20250129069A1, “TRIAZOLO WRN INHIBITORS” (Nimbus Wadjet, Inc., priority 2023, published 2025).

What was measured:
[1] = tested on: p21 induction in HCT 116 cells; assay: p21 induction in cells (In-Cell Western, p21/GAPDH ratio); type: cell-based; conditions: Homo sapiens, 24 h compound incubation, read-out: p21_EC50
Outline: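 EC50 values come from nonlinear fits of percent activation, defined by the 800/700 nm p21-to-GAPDH ratio scaled between DMSO (low) and internal WRN inhibitor (high) controls. In-Cell Western read after 24 h compound exposure of HCT 116 cells at 37° C. Duplicate 11-point series, 2-fold steps, usually starting at 10 μM.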

[2] = target: human Werner helicase (WRN, amino acids 517-1235 with L1074F point mutation) (Homo sapiens (Human), UniProt Q14191, L1074F); assay: WRN (BV08) ADP-Glo assay; type: biochemical; conditions: human WRN (aa 517-1235, L1074F), read-out: ADP-Glo_hWRN_IC50
Outline: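 ADP-Glo luminescence read after 60 min, 25 °C reaction of 0.15 nM WRN (517-1235, L1074F, Sf9-expressed, tag removed) with 0.1 nM DNA duplex and 5 μM ATP, following 15 min compound preincubation; 20 mM Bicine pH 7.5, 1% DMSO. IC50 from 3- or 4-parameter fit of % inhibition.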

Chain of human Werner helicase (WRN, amino acids 517-1235 with L1074F point mutation) (Q14191 other isoform, or with tags, fused parts or gaps L1074F (already in the parent)): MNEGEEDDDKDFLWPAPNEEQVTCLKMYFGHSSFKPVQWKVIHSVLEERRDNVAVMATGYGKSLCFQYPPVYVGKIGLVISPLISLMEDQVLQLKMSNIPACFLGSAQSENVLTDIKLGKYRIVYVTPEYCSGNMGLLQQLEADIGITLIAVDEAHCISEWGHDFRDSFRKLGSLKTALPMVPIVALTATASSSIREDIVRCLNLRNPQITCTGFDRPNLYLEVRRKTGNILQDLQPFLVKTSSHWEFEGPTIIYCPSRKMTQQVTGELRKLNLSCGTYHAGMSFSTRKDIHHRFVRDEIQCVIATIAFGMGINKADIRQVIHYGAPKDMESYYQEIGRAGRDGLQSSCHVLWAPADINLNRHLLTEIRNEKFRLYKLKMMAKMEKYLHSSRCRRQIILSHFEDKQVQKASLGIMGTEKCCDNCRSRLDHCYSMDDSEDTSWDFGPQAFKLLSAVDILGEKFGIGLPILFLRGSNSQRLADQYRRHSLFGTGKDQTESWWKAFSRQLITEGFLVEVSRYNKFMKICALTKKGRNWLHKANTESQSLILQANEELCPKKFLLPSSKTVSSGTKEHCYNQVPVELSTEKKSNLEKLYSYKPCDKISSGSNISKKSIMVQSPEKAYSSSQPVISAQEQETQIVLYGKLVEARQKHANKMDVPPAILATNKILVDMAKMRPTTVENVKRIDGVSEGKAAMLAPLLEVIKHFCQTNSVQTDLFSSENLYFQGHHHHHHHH

SMILES | EC50 [1] [nM] | IC50 [2] [nM]
CCc1c(N2CCN(C(=O)c3nccnc3OC)[C@H]3CC[C@@H]32)c(=O)c2nn(C3=CCOCC3)nc2n1CC(=O)NC12CC(C(C)C)(C1)C2 [Compound I-200, 2-[2-(3,6-dihydro-2H-pyran-4-yl)-5-ethyl-6-[(1S,6S)-5-(3-methoxypyrazine-2-carbonyl)-2,5-diazabicyclo[4.2.0]octan-2-yl]-7-oxo-2H,4H,7H-[1,2,3]triazolo[4,5-b]pyridin-4-yl]-N-[3-(propan-2-yl)bicyclo[1.1.1]pentan-1-yl]acetamide] | ≤ 500 | 5 to 50
CCc1c(N2CCN(C(=O)c3ncnc(C)c3O)CC2)c(=O)c2nn(-c3ccnc(OC)c3)nc2n1CC(=O)Nc1ccc(C(F)(F)F)cc1Cl [Compound I-149, N-[2-chloro-4-(trifluoromethyl)phenyl]-2-{5-ethyl-6-[4-(5-hydroxy-6-methylpyrimidine-4-carbonyl)piperazin-1-yl]-2-(2-methoxypyridin-4-yl)-7-oxo-2H,4H,7H-[1,2,3]triazolo[4,5-b]pyridin-4-yl}acetamide] | ≤ 500 | ≤ 5
CCc1c(N2CCN(C(=O)c3cccc4ncoc34)[C@H]3CC[C@@H]32)c(=O)c2nn(-c3ccnc(OC)c3)nc2n1CC(=O)Nc1ccc(C(F)(F)F)cc1Cl [Compound I-107, 2-{6-[(1S,6S)-5-(1,3-benzoxazole-7-carbonyl)-2,5-diazabicyclo[4.2.0]octan-2-yl]-5-ethyl-2-(2-methoxypyridin-4-yl)-7-oxo-2H,4H,7H-[1,2,3]triazolo[4,5-b]pyridin-4-yl}-N-[2-chloro-4-(trifluoromethyl)phenyl]acetamide] | ≤ 500 | 5 to 50
CCc1c(N2CCN(C(=O)c3ncnc(C)c3O)[C@H]3CC[C@@H]32)c(=O)c2nn(-c3ccnc(OC)c3)nc2n1CC(=O)Nc1ccc(C(F)F)cc1Cl [Compound I-82, N-[2-chloro-4-(difluoromethyl)phenyl]-2-{5-ethyl-6-[(1S,6S)-5-(5-hydroxy-6-methylpyrimidine-4-carbonyl)-2,5-diazabicyclo[4.2.0]octan-2-yl]-2-(2-methoxypyridin-4-yl)-7-oxo-2H,4H,7H-[1,2,3]triazolo[4,5-b]pyridin-4-yl}acetamide] | ≤ 500 | ≤ 5
CCc1c(N2CCN(C(=O)c3cc(N4CCC(C)(O)C4)cnc3OC)[C@H]3CC[C@@H]32)c(=O)c2nn(C3=CCOCC3)nc2n1CC(=O)NC12CC(C3CC3)(C1)C2 (stereo partly drawn) [Compound I-186, N-{3-cyclopropylbicyclo[1.1.1]pentan-1-yl}-2-[2-(3,6-dihydro-2H-pyran-4-yl)-5-ethyl-6-[(1S,6S)-5-[5-(3-hydroxy-3-methylpyrrolidin-1-yl)-2-methoxypyridine-3-carbonyl]-2,5-diazabicyclo[4.2.0]octan-2-yl]-7-oxo-2H,4H,7H-[1,2,3]triazolo[4,5-b]pyridin-4-yl]acetamide] | 500 to 2000 | 5 to 50
CCc1c(N2CCN(C(=O)c3c(OC)ncc(C)c3O)[C@H]3CC[C@@H]32)c(=O)c2nn(C3=CCOCC3)nc2n1CC(=O)Nc1ccc(C(F)(F)F)cc1Cl [Compound I-23, N-(2-chloro-4-(trifluoromethyl)phenyl)-2-(2-(3,6-dihydro-2H-pyran-4-yl)-5-ethyl-6-((1S,6S)-5-(4-hydroxy-2-methoxy-5-methylnicotinoyl)-2,5-diazabicyclo[4.2.0]octan-2-yl)-7-oxo-2,7-dihydro-4H-[1,2,3]triazolo[4,5-b]pyridin-4-yl)acetamide] | ≤ 500 | ≤ 5
CCc1c(N2CCN(C(=O)c3ccccc3C(=O)O)CC2)c(=O)c2nn(-c3ccnc(OC)c3)nc2n1CC(=O)NC12CC(C3CC3)(C1)C2 [Compound I-161, 2-(4-{4-[{{3-cyclopropylbicyclo[1.1.1]pentan-1-yl}carbamoyl)methyl]-5-ethyl-2-(2-methoxypyridin-4-yl)-7-oxo-2H,4H,7H-[1,2,3]triazolo[4,5-b]pyridin-6-yl}piperazine-1-carbonyl)benzoic acid] | > 5000 | 5 to 50
CCc1c(N2CCN(C(=O)c3c(OC)ncc(C)c3O)CC2)c(=O)c2nn(-c3ccnc(OC)c3)nc2n1CC(=O)NC12CC(C3CCOC3)(C1)C2 (stereo not shown) [Compound I-123, 2-{5-ethyl-6-[4-(4-hydroxy-2-methoxy-5-methylpyridine-3-carbonyl)piperazin-1-yl]-2-(2-methoxypyridin-4-yl)-7-oxo-2H,4H,7H-[1,2,3]triazolo[4,5-b]pyridin-4-yl}-N-[3-(oxolan-3-yl)bicyclo[1.1.1]pentan-1-yl]acetamide] | > 5000 | 50 to 100
CCc1c(N2CCN(C(=O)c3ncnc(C)c3O)[C@H]3CC[C@@H]32)c(=O)c2nn(-c3ccnc(OC)c3)nc2n1CC(=O)NC1CC2(CCC(F)(F)CC2)C1 [Compound I-68, N-{7,7-difluorospiro[3.5]nonan-2-yl}-2-{5-ethyl-6-[(1S,6S)-5-(5-hydroxy-6-methylpyrimidine-4-carbonyl)-2,5-diazabicyclo[4.2.0]octan-2-yl]-2-(2-methoxypyridin-4-yl)-7-oxo-2H,4H,7H-[1,2,3]triazolo[4,5-b]pyridin-4-yl}acetamide] | > 5000 | 5 to 50
CCc1c(N2CCN(C(=O)c3c(OC)ncc(C)c3O)CC2)c(=O)c2nn(-c3ccnc(OC)c3)nc2n1CC(=O)NC1CC2(C1)CC(F)(F)C2 [Compound I-104, N-{6,6-difluorospiro[3.3]heptan-2-yl}-2-{5-ethyl-6-[4-(4-hydroxy-2-methoxy-5-methylpyridine-3-carbonyl)piperazin-1-yl]-2-(2-methoxypyridin-4-yl)-7-oxo-2H,4H,7H-[1,2,3]triazolo[4,5-b]pyridin-4-yl}acetamide] | > 5000 | 50 to 100
CCc1c(N2CCN(C(=O)c3c(O)ccc4ncoc34)CC2)c(=O)c2nn(C(C)C)nc2n1CC(=O)Nc1ccc(C(F)(F)F)cc1Cl [Compound I-139, N-[2-chloro-4-(trifluoromethyl)phenyl]-2-{5-ethyl-6-[4-(6-hydroxy-1,3-benzoxazole-7-carbonyl)piperazin-1-yl]-7-oxo-2-(propan-2-yl)-2H,4H,7H-[1,2,3]triazolo[4,5-b]pyridin-4-yl}acetamide] | ≤ 500 | ≤ 5
CCc1c(N2CCN(C(=O)c3c(OC)ncc(C(F)F)c3O)CC2)c(=O)c2nn(-c3ccnc(OC)c3)nc2n1CC(=O)NC12CC(C(C)C)(C1)C2 [Compound I-51, 2-(6-{4-[5-(difluoromethyl)-4-hydroxy-2-methoxypyridine-3-carbonyl]piperazin-1-yl}-5-ethyl-2-(2-methoxypyridin-4-yl)-7-oxo-2H,4H,7H-[1,2,3]triazolo[4,5-b]pyridin-4-yl)-N-[3-(propan-2-yl)bicyclo[1.1.1]pentan-1-yl]acetamide] | 2000 to 5000 | 5 to 50
CCc1c(N2CCN(C(=O)c3ncnc(C)c3O)[C@H]3CC[C@@H]32)c(=O)c2nn(-c3ncccc3F)nc2n1CC(=O)NC12CC(C(C)C)(C1)C2 [Compound I-163, 2-[5-ethyl-2-(3-fluoropyridin-2-yl)-6-[(1S,6S)-5-(5-hydroxy-6-methylpyrimidine-4-carbonyl)-2,5-diazabicyclo[4.2.0]octan-2-yl]-7-oxo-2H,4H,7H-[1,2,3]triazolo[4,5-b]pyridin-4-yl]-N-[3-(propan-2-yl)bicyclo[1.1.1]pentan-1-yl]acetamide] | > 5000 | 5 to 50
CCc1c(N2CCN(C(=O)c3ncnc(C)c3O)[C@H]3CC[C@@H]32)c(=O)c2nn(-c3ccnc(OC)c3)nc2n1CC(=O)NC1CCC2(CC1)CC2(F)F (stereo partly drawn) [Compound I-67, N-{1,1-difluorospiro[2.5]octan-6-yl}-2-{5-ethyl-6-[(1S,6S)-5-(5-hydroxy-6-methylpyrimidine-4-carbonyl)-2,5-diazabicyclo[4.2.0]octan-2-yl]-2-(2-methoxypyridin-4-yl)-7-oxo-2H,4H,7H-[1,2,3]triazolo[4,5-b]pyridin-4-yl}acetamide] | > 5000 | 5 to 50
CCc1c(N2CCN(C(=O)c3ccncc3OC)[C@H]3CC[C@@H]32)c(=O)c2nn(C3=CCOCC3)nc2n1CC(=O)NC12CC(C(C)C)(C1)C2 [Compound I-208, 2-[2-(3,6-dihydro-2H-pyran-4-yl)-5-ethyl-6-[(1S,6S)-5-(3-methoxypyridine-4-carbonyl)-2,5-diazabicyclo[4.2.0]octan-2-yl]-7-oxo-2H,4H,7H-[1,2,3]triazolo[4,5-b]pyridin-4-yl]-N-[3-(propan-2-yl)bicyclo[1.1.1]pentan-1-yl]acetamide] | 500 to 2000 | 5 to 50
CCc1c(N2CCN(C(=O)c3ncnc(C)c3O)[C@H]3CC[C@@H]32)c(=O)c2nn(-c3ccnc(OC)c3)nc2n1CC(=O)Nc1ccc(C(F)F)cc1F [Compound I-83, N-[4-(difluoromethyl)-2-fluorophenyl]-2-{5-ethyl-6-[(1S,6S)-5-(5-hydroxy-6-methylpyrimidine-4-carbonyl)-2,5-diazabicyclo[4.2.0]octan-2-yl]-2-(2-methoxypyridin-4-yl)-7-oxo-2H,4H,7H-[1,2,3]triazolo[4,5-b]pyridin-4-yl}acetamide] | ≤ 500 | ≤ 5
CCc1c(N2CCN(C(=O)c3ncnc(C)c3O)[C@H]3CC[C@@H]32)c(=O)c2nn(-c3ccnc(OC)c3)nc2n1CC(=O)NC1CC2(CC(C)C2)C1 (stereo partly drawn) [Compound I-88, 2-{5-ethyl-6-[(1S,6S)-5-(5-hydroxy-6-methylpyrimidine-4-carbonyl)-2,5-diazabicyclo[4.2.0]octan-2-yl]-2-(2-methoxypyridin-4-yl)-7-oxo-2H,4H,7H-[1,2,3]triazolo[4,5-b]pyridin-4-yl}-N-{6-methylspiro[3.3]heptan-2-yl}acetamide] | 500 to 2000 | 5 to 50
